Assay results from ChEMBL document CHEMBL3885881, “DrugMatrix”.

Species on record: Rattus norvegicus
Experiment: DrugMatrix - Regimen: Daily Repeat
Format: toxicity, organism-based, Sprague-Dawley
Design: regimen Daily Repeat, gender Male, age 6-8 weeks
Conditions: in vivo, po, route oral GAVAGE, […]; for URIC ACID / ALANINE AMINOTRANSFERASE / ALBUMIN / ALKALINE PHOSPHATASE / ASPARTATE AMINOTRANSFERASE / BLOOD UREA NITROGEN / CARBON DIOXIDE / CHLORIDE / CHOLESTEROL / CREATINE PHOSPHOKINASE / CREATININE / GLUCOSE / LACTATE DEHYDROGENASE / LIPASE / PHOSPHORUS / POTASSIUM / SODIUM / TOTAL BILIRUBIN / TOTAL PROTEIN: tissue Plasma; for ABSOLUTE BASOPHIL / ABSOLUTE EOSINOPHIL / ABSOLUTE LYMPHOCYTE / ABSOLUTE MONOCYTE / ABSOLUTE SEGMENTED NEUTROPHIL / BASOPHIL / EOSINOPHIL / ERYTHROCYTE COUNT / HEMATOCRIT / HEMOGLOBIN / LEUKOCYTE COUNT / LYMPHOCYTE / MEAN CORPUSCULAR HEMOGLOBIN / MEAN CORPUSCULAR HEMOGLOBIN CONCENTRATION / MONOCYTE / NEUTROPHIL / NUCLEATED RED BLOOD CELLS / PLATELET COUNT: tissue Blood
[1] = 0.2 mg/kg, 120 h, dose level Low, time 5 day
[2] = 19 mg/kg, 72 h, dose level High, time 3 day
[3] = 19 mg/kg, 120 h, dose level High, time 5 day

CCOC(=O)C1=C(COCCN)NC(C)=C(C(=O)OC)C1c1ccccc1Cl (stereo unspecified) [AMLODIPINE]
URIC ACID (0.2 mg/kg, 72 h, dose level Low, time 3 day): 1.4 mg/dL
ABSOLUTE BASOPHIL [1]: 0 CELLS/uL
ABSOLUTE EOSINOPHIL [1]: 54 CELLS/uL
ABSOLUTE LYMPHOCYTE [1]: 12693.33 CELLS/uL
ABSOLUTE MONOCYTE [1]: 54 CELLS/uL
ABSOLUTE SEGMENTED NEUTROPHIL [1]: 1132 CELLS/uL
BASOPHIL [1]: 0%
EOSINOPHIL [1]: 0.33%
ERYTHROCYTE COUNT [1]: 5.55 x10E6/uL
HEMATOCRIT [1]: 34.53%
HEMOGLOBIN [1]: 13.3 G/DL
LEUKOCYTE COUNT [1]: 13.93 x10E3/uL
LYMPHOCYTE [1]: 91.33%
MEAN CORPUSCULAR HEMOGLOBIN [1]: 23.97 pg
MEAN CORPUSCULAR HEMOGLOBIN CONCENTRATION [1]: 38.5 G/DL
MONOCYTE [1]: 0.33%
NEUTROPHIL [1]: 8%
NUCLEATED RED BLOOD CELLS [1]: 0.33 /100WBC
PLATELET COUNT [1]: 1051.33 x10E3/uL
ALANINE AMINOTRANSFERASE [1]: 66 u/L
ALBUMIN [1]: 4.1 G/DL
ALKALINE PHOSPHATASE [1]: 350 u/L
ASPARTATE AMINOTRANSFERASE [1]: 82 u/L
BLOOD UREA NITROGEN [1]: 16 mg/dL
CARBON DIOXIDE [1]: 30.33 mmol/L
CHLORIDE [1]: 99.33 MEQ/L
CHOLESTEROL [1]: 64.33 mg/dL
CREATINE PHOSPHOKINASE [1]: 209.67 u/L
CREATININE [1]: 0.14 mg/dL
GLUCOSE [1]: 156.33 mg/dL
LACTATE DEHYDROGENASE [1]: 144.67 u/L
LIPASE [1]: 19.33 u/L
PHOSPHORUS [1]: 10.4 mg/dL
POTASSIUM [1]: 5.81 MEQ/L
SODIUM [1]: 144.97 MEQ/L
TOTAL BILIRUBIN [1]: 0.1 mg/dL
TOTAL PROTEIN [1]: 5.67 G/DL
URIC ACID [1]: 0.87 mg/dL
ABSOLUTE BASOPHIL [2]: 0 CELLS/uL
ABSOLUTE EOSINOPHIL [2]: 0 CELLS/uL
ABSOLUTE LYMPHOCYTE [2]: 15467 CELLS/uL
ABSOLUTE MONOCYTE [2]: 0 CELLS/uL
ABSOLUTE SEGMENTED NEUTROPHIL [2]: 1533 CELLS/uL
BASOPHIL [2]: 0%
EOSINOPHIL [2]: 0%
ERYTHROCYTE COUNT [2]: 5.69 x10E6/uL
HEMATOCRIT [2]: 35.43%
HEMOGLOBIN [2]: 13.97 G/DL
LEUKOCYTE COUNT [2]: 17 x10E3/uL
LYMPHOCYTE [2]: 90.67%
MEAN CORPUSCULAR HEMOGLOBIN [2]: 24.53 pg
MEAN CORPUSCULAR HEMOGLOBIN CONCENTRATION [2]: 39.4 G/DL
MONOCYTE [2]: 0%
NEUTROPHIL [2]: 9.33%
NUCLEATED RED BLOOD CELLS [2]: 0 /100WBC
PLATELET COUNT [2]: 1141 x10E3/uL
ALANINE AMINOTRANSFERASE [2]: 69.67 u/L
ALBUMIN [2]: 3.77 G/DL
ALKALINE PHOSPHATASE [2]: 410 u/L
ASPARTATE AMINOTRANSFERASE [2]: 81.67 u/L
BLOOD UREA NITROGEN [2]: 14 mg/dL
CARBON DIOXIDE [2]: 29.67 mmol/L
CHLORIDE [2]: 101.67 MEQ/L
CHOLESTEROL [2]: 68 mg/dL
CREATINE PHOSPHOKINASE [2]: 240.33 u/L
CREATININE [2]: 0.16 mg/dL
GLUCOSE [2]: 161 mg/dL
LACTATE DEHYDROGENASE [2]: 103.33 u/L
LIPASE [2]: 10 u/L
PHOSPHORUS [2]: 10.33 mg/dL
SODIUM [2]: 141.27 MEQ/L
TOTAL BILIRUBIN [2]: 0.23 mg/dL
TOTAL PROTEIN [2]: 5.6 G/DL
URIC ACID [2]: 1.43 mg/dL
ABSOLUTE BASOPHIL [3]: 0 CELLS/uL
ABSOLUTE EOSINOPHIL [3]: 0 CELLS/uL
ABSOLUTE LYMPHOCYTE [3]: 11777 CELLS/uL
ABSOLUTE MONOCYTE [3]: 51 CELLS/uL
ABSOLUTE SEGMENTED NEUTROPHIL [3]: 838.67 CELLS/uL
BASOPHIL [3]: 0%
EOSINOPHIL [3]: 0%
ERYTHROCYTE COUNT [3]: 5.63 x10E6/uL
HEMATOCRIT [3]: 34.73%
HEMOGLOBIN [3]: 13.7 G/DL
LEUKOCYTE COUNT [3]: 12.67 x10E3/uL
LYMPHOCYTE [3]: 92.67%
MEAN CORPUSCULAR HEMOGLOBIN [3]: 24.33 pg
MEAN CORPUSCULAR HEMOGLOBIN CONCENTRATION [3]: 39.47 G/DL
MONOCYTE [3]: 0.33%
NEUTROPHIL [3]: 7%
NUCLEATED RED BLOOD CELLS [3]: 0 /100WBC
PLATELET COUNT [3]: 1057.67 x10E3/uL
ALANINE AMINOTRANSFERASE [3]: 95 u/L
ALBUMIN [3]: 4 G/DL
ALKALINE PHOSPHATASE [3]: 359.33 u/L
ASPARTATE AMINOTRANSFERASE [3]: 100 u/L
BLOOD UREA NITROGEN [3]: 16 mg/dL
CARBON DIOXIDE [3]: 34.67 mmol/L
CHLORIDE [3]: 101.5 MEQ/L
CHOLESTEROL [3]: 68.33 mg/dL
CREATINE PHOSPHOKINASE [3]: 177.67 u/L
CREATININE [3]: 0.13 mg/dL
GLUCOSE [3]: 165 mg/dL
LACTATE DEHYDROGENASE [3]: 96.67 u/L
LIPASE [3]: 12 u/L
PHOSPHORUS [3]: 8.93 mg/dL
POTASSIUM [3]: 5.34 MEQ/L
SODIUM [3]: 145.05 MEQ/L
TOTAL BILIRUBIN [3]: 0.1 mg/dL
TOTAL PROTEIN [3]: 5.9 G/DL
URIC ACID [3]: 0.37 mg/dL
